Experimental data published in patent US10875837B2, “Inhibitors of the fibroblast growth factor receptor” (BLUEPRINT MEDICINES CORPORATION, priority 2013, dated 2020).

Key:
Hep3B xenograft tumors = assay: Hep3B liver cancer cell subcutaneous xenograft model in nude mice; format: in vivo
Method: The effects of Compound 27 on tumor growth inhibition in Hep3B liver cancer cell subcutaneous xenograft model with different dosages were studied.
Female nude mice (Mus musculus) age 6 to 8 weeks were used. Tumor cell culture and inoculation: Hep3B cells were cultured with EMEM medium (Invitrogen, USA) supplemented with 10% FBS (Gibco, Australia). The cells were harvested in 90% confluence, and the viability was no less than 90%. Mice were implanted subcutaneously (s.c.) with 200 μL of 10×10^6 Hep3B cells in 50% Matrigel in the right flank at the beginning of the study.
Animal grouping and dosing schedule: Ten days after cell implantation, when tumors reached an average volume of 284 mm^3, […] were selected based on tumor volume and randomly assigned to 5 treatment groups (n=9). The day of randomization was denoted as day 0 and the treatment was started from then on.
Tumor volume and body weight measurements: Tumor size was measured twice per week in two dimensions using a caliper, and the volume was expressed in mm^3 using the formula: V=0.5 a× b^2 where a and b were the long and short diameters of the tumor, respectively. Body weight was measured at least twice weekly.

wild type FGFR-4 = target: T1, wild type FGFR-4 (Homo sapiens, UniProt P22455); assay: FGFR-4 wild type assay at Km (Caliper electrophoretic mobility shift); format: biochemical; conditions: wild type FGFR-4, 400 uM ATP, 25 C, 90 minutes; read-out: INH-FGFR4
T1 construct: purchased Carna Biosciences, Inc
T1 sequence (P22455 22-802): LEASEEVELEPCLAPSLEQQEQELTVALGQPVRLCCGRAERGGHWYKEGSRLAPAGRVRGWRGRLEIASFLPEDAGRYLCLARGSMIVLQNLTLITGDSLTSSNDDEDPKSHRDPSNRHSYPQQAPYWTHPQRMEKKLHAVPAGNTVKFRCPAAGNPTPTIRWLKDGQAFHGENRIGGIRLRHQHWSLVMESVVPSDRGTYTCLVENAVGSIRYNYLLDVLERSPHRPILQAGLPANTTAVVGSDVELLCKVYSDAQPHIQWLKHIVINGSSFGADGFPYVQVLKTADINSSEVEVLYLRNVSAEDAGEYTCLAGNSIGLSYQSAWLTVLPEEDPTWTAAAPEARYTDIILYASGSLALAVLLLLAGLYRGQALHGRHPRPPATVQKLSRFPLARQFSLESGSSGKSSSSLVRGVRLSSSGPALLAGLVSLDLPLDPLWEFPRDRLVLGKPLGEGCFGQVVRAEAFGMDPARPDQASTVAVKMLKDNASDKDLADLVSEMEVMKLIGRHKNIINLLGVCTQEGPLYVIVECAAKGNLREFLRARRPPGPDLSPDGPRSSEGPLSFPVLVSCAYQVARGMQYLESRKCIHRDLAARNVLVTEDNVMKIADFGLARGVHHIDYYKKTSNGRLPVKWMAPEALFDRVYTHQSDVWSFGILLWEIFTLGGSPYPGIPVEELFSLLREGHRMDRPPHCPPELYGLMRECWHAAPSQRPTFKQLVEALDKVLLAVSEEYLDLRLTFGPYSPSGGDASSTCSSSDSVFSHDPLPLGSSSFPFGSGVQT
Method: Biochemical Activity Assessment In order to assess the activity of chemical compounds against the relevant kinase of interest, the Caliper LifeSciences electrophoretic mobility shift technology platform is utilized. Fluorescently labeled substrate peptide is incubated in the presence dosed levels of compounds, a set concentration of kinase and of ATP, so that a reflective proportion of the peptide is phosphorylated. At the end of the reaction, the mix of phosphorylated (product) and non-phosphorylated (substrate) peptides are passed through the microfluidic system of the Caliper LabChip® EZ Reader II, under an applied potential difference. The presence of the phosphate group on the product peptide provides a difference in mass and charge between the product peptide and the substrate peptide, resulting in a separation of the substrate and product pools in the sample. As the pools pass the LEDS within the instrument, these pools are detected and resolved as separate peaks. The ratio between these peaks therefore reflects the activity of the chemical matter at that concentration in that well, under those conditions.
FGFR-4 wild type assay at Km: In each well of a 384-well plate, 0.5 ng/ul of wild type FGFR-4 (Carna Biosciences, Inc.) was incubated in a total of 12.5 ul of buffer (100 mM HEPES pH 7.5, 0.015% Brij 35, 10 mM MgCl2, 1 mM DTT) with 1 uM CSKtide (5-FAM-KKKKEEIYFFFG-NH2) and 400 uM ATP at 25 C for 90 minutes in the presence or absence of a dosed concentration series of compound (1% DMSO final concentration). The reaction was stopped by the addition of 70 ul of Stop buffer (100 mM HEPES pH 7.5, 0.015% Brij 35, 35 mM EDTA and 0.2% of Coating Reagent 3 (Caliper Lifesciences)). The plate was then read on a Caliper LabChip® EZ Reader II (protocol settings: −1.9 psi, upstream voltage −700, downstream voltage −3000, post sample sip 35 s).

[1] = test system: pMAPK (Thr202/Tyr204) in MDA-MB453 or DMS 114 cells; assay: Detection of pMAPK (Thr202/Tyr204) using Alpha ELISA (pERK alphaLISA); format: cell-based; conditions: 1 hr incubation with compound; cell line not given (MDA-MB453 or DMS 114)
Method: Detection of pMAPK (Thr202/Tyr204) Using Alpha ELISA
MDA-MB453 or DMS 114 cells were plated in 96-well cell culture plates at a density of 1×10^5 cells or 3×10^4 cells, respectively. Cells were allowed to attach, and growth media was replaced with serum free media. Compounds were added at the indicated concentrations. Following 1 hr incubation in the presence of compound, cells were collected. For the DMS 114 cells, 100 ng/mL FGF2 was added for 10 min prior to cell collection. Cell lysates were prepared and processed according to manufacturer instruction (AlphaScreen® SureFire™ Phospho-ERK 1/2 Kit (Perkin Elmer).

C=CC(=O)N[C@H]1COC[C@H]1Nc1ncc2cc(-c3c(Cl)c(OC)cc(OC)c3Cl)ccc2n1 [Compound 27, N-[(3R,4S)-4-{[6-(2,6-dichloro-3,5-dimethoxyphenyl)quinazolin-2-yl]amino}oxolan-3-yl]prop-2-enamide]
tumor response (Hep3B xenograft tumors; 100 mg/kg PO BID, Hep3B xenograft, nude mice): regressed and almost disappeared
tumor volume compared with vehicle group (Hep3B xenograft tumors; 30 and 100 mg/kg PO BID, Hep3B xenograft, nude mice): Statistically significant reduction of tumor volumes
body weight change (Hep3B xenograft tumors; Hep3B-bearing nude mice, only the 100 mg/kg PO BID group did not lose bodyweight): could alleviate body weight loss
tumor volume compared with vehicle group during the entire study (Hep3B xenograft tumors; all treated groups, 10 mg/kg to 100 mg/kg, Hep3B xenograft, nude mice): significant reduction of tumor volume
tolerability (Hep3B xenograft tumors; current dosages and dosing schedule (10 to 100 mg/kg PO BID), nude mice): well tolerated
dose dependence of tumor inhibition efficiency (Hep3B xenograft tumors; increasing dosage from 10 mg/kg to 100 mg/kg): enhanced the tumor inhibition efficiency
IC50 (wild type FGFR-4): < 10 nM
IC50 [1]: < 10 nM
